The source of these data is ChEMBL document CHEMBL4665898, “Semisynthetic Analogs of the Antibiotic Fidaxomicin-Design, Synthesis, and Biological Evaluation” (ACS Med Chem Lett, 2020).

This test deals with Mycobacterium tuberculosis. Kind of test: Antimycobacterial activity against multi-drug resistant Mycobacterium tuberculosis after 5 days in presence of 7H9 medium by CLSI-based broth microdilution method. It is filed as functional. The settings on record: 120 h, time 5 day. Background: Broth dilution looks for growth in wells or tubes with falling amounts of substance.

Usually MIC stands for the smallest concentration in the dilution series that meets the test's criterion for growth inhibition. For the compound `CCc1c(Cl)c(O)c(Cl)c(O)c1C(=O)O[C@@H]1[C@@H](O)[C@@H](OC)[C@@H](OC/C2=C\C=C\C[C@H](O)/C(C)=C/[C@H](CC)[C@@H](O[C@@H]3OC(C)(C)[C@@H](OC(=O)C(C)C)[C@H](O)[C@@H]3O)/C(C)=C/C(C)=C/C[C@@H]([C@@H](C)O)OC2=O)O[C@H]1C`, the MIC was less than 8 ng/mL.
